According to ChEMBL document CHEMBL2007661, “Compounds: GSK PKIS; Assays: UNC Frye lab” (2012):
Several values for one entry are separate records, joined by “and”; a condition that tells them apart may be missing. Equal values may be shown once.

Columns and labels:
[1] = molecular target: T1, Inhibitor of nuclear factor kappa-B kinase subunit alpha (Homo sapiens) (UniProt O15111); details: at 1 µM
T1 sequence (whole entry): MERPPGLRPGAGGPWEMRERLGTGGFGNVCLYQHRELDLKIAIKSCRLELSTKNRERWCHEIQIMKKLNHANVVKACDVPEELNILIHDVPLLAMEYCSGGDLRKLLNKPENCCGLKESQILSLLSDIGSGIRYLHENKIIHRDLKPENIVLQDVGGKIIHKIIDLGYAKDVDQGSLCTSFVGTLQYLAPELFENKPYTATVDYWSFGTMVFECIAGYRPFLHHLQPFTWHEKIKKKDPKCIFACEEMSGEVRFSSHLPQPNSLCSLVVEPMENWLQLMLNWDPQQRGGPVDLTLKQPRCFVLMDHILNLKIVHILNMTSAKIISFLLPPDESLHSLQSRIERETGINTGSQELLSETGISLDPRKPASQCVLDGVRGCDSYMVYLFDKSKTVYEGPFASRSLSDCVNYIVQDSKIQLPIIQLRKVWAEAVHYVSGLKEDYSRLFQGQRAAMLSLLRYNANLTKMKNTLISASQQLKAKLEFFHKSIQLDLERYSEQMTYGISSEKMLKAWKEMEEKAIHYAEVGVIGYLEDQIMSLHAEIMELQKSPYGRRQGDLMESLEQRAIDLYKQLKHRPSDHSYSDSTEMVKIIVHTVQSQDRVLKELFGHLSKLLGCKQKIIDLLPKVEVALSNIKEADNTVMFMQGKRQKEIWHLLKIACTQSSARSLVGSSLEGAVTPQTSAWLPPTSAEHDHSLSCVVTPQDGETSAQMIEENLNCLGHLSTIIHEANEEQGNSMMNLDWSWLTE

[2] = molecular target: T2, Inhibitor of nuclear factor kappa-B kinase subunit epsilon (Homo sapiens) (UniProt Q14164); details: at 1 µM
T2 sequence (whole entry): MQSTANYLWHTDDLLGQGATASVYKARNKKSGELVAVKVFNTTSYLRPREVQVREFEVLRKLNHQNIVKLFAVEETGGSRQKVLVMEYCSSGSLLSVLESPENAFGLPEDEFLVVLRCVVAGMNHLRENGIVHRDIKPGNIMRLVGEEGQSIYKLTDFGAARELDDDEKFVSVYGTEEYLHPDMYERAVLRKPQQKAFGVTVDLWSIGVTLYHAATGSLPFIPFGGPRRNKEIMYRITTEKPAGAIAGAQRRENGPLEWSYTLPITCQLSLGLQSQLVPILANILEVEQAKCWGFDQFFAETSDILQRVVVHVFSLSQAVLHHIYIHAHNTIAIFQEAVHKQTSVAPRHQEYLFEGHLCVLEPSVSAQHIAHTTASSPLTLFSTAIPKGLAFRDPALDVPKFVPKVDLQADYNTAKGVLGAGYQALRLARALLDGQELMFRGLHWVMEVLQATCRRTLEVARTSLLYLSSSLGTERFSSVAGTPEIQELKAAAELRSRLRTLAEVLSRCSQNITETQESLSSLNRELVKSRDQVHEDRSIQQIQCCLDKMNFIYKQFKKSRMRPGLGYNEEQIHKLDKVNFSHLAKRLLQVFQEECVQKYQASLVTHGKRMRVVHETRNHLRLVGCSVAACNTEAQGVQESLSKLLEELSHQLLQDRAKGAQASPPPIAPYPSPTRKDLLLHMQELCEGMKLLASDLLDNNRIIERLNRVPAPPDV

[3] = molecular target: T3, Tyrosine-protein kinase Mer (Homo sapiens) (UniProt Q12866); details: at 10 µM
T3 sequence (whole entry): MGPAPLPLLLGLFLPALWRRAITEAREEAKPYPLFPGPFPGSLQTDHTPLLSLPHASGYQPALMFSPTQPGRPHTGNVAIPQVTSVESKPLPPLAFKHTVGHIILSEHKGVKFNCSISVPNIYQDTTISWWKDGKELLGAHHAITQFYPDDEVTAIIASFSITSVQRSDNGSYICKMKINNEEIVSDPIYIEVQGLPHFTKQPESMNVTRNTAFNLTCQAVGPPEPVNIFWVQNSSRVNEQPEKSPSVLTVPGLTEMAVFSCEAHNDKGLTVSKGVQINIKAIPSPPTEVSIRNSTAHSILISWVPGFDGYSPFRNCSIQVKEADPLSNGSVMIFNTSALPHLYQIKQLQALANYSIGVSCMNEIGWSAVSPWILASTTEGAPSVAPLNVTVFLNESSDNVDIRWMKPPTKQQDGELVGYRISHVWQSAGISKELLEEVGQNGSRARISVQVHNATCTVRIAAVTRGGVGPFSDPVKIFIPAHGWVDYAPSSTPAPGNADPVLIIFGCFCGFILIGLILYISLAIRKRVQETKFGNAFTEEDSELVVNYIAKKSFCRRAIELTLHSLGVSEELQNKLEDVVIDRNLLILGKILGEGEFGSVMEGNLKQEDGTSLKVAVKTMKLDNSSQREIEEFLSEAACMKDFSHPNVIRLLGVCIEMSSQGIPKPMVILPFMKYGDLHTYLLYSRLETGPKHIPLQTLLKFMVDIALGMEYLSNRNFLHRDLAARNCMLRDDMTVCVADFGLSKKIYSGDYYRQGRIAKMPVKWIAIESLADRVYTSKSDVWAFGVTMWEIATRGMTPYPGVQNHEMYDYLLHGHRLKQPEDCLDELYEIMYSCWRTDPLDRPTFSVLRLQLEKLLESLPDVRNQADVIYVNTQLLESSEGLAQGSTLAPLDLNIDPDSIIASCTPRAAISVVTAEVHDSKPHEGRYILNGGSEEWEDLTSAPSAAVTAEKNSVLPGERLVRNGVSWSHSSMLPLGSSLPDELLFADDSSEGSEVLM

**Q.** For `NS(=O)(=O)c1ccc(Nc2cc(-c3ccc(O)c(F)c3)n[nH]2)cc1`, which inhibition [1] is on record?
**A.** 1% and -1%

**Q.** What about the inhibition [2] of the same compound?
**A.** 4% and 3%

**Q.** And the inhibition [3]?
**A.** -1%
